Data reported in patent US8293506B2, “L-cysteine-producing bacterium and a method for producing L-cysteine” (Ajinomoto Co., Inc., priority 2009, dated 2012).

Assays:
[1] = system: dsbA-deficient strain JW3832/pCA24; experiment: Growth test on L agar medium containing cysteine, dsbA-deficient strain; type: cell-based, Escherichia coli; settings: L agar with 10, 15, 20 mM cysteine, 37° C. overnight; FIG. 1
Source text: (§1) Since a dsbA-deficient strain was obtained by the screening of the Keio Collection, growth of the gene-deficient strain was observed on the agar medium containing cysteine of different concentrations in order to analyze the sensitivity of that strain to cysteine in more detail. Furthermore, as for the to/C gene (Japanese Patent Application No. 2008-040167, Wiriyathanawudhiwong, N. et al., Appl. Microbiol. Biotechnol. (2009) 81:903-913), which was previously obtained in a similar manner, and of which deletion is known to induce cysteine sensitivity, a similar experiment was performed by using a to/C-deficient strain. The dsbA-deficient strain and to/C-deficient strain used in this experiment were JW3832 strain and JW5503 strain, respectively (both were included in the Keio collection), and their parent strain was the BW25113 strain (Andreas Haldimann, A. and Wanner, B. L., J. Bacteriol., 2001 November, 183 (21):6384-6393). The plasmids carrying the dsbA gene and the to/C gene for the complementation experiment were pDsbA and pTo1C (ASKA clone (Kitagawa, M., et al., 2005, DNA Res., 12:291-299)), and the vector used as the base of them was pCA24 (vector for ASKA clone (Kitagawa, M., et al., 2005, DNA Res., 12:291-299)). […]

[2] = molecular target: T1, DsbA protein (Escherichia coli, UniProt P0AEG4); experiment: Oxidized and reduced states of DsbA protein (AMS modification, Western blotting); type: cell-based; settings: wild-type strain, 5 mM cysteine, 20 minutes; FIG. 2
T1 construct: endogenous in cells; host or cells: E. coli BW25113 (wild-type strain, also with pYdeD)
T1 sequence (P0AEG4 20-208): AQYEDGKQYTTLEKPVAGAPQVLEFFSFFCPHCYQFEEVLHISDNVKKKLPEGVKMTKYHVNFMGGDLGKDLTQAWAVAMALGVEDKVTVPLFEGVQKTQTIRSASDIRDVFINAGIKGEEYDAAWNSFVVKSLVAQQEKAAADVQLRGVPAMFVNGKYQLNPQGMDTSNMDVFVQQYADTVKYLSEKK
Source text: The strains used in this experiment were the E. coli BW25113 strain (Andreas Haldimann and Barry L. Wanner, J. Bacteriol., 2001 November, 183 (21):6384-6393) as a wild-type parent strain, the dsbA-deficient JW3832 strain and dsbB-deficient JW5182 strain derived from BW25113 strain (Baba, T, et al., 2006, Mol. Syst. Biol., 2:2006.0008). As a plasmid carrying the dsbB gene, pDsbB (ASKA clone, Kitagawa, M. et al., 2005, DNA Res., 12:291-9) was used.
In order to distinguish the oxidized state and the reduced state of the DsbA protein, the protein was modified with AMS (4-acetamido-4′-maleimidyl-stilbene-2,2′-disulfonate) (Kadokura, H. et al., 2004, Science, 303, 534-537). Each of the wild-type strain, the dsbA-deficient strain, the dsbB-deficient strain, the wild-type strain +pYdeD and the dsbB-deficient strain +pDsbB was cultured overnight at 30° C. in 3 ml of LB medium, and the resulting culture was used as a preculture medium. The preculture medium was inoculated into the LB medium in a 1% amount, and culture was performed at 30° C. with shaking until OD660 reached 0.4 to 0.5. […]
The labeled protein was then separated by non-reduced SDS gel electrophoresis (12.5%), and then detected by Western blotting. […] The label was detected by using ECL Plus Western Blotting Detection Reagents (Amersham).

[3] = system: wild-type strains (E. coli BW25113); experiment: Screening of Keio collection on LB agar containing cysteine; type: cell-based, Escherichia coli; settings: overnight at 37° C.
Procedure: The 3,985 clones of the Keio collection were cultured at 37° C. for 15 hours in 0.5 ml of LB liquid medium. This culture medium was stamped on LB agar media containing cysteine at different concentrations (0, 15, 20, 25 mM), and culture was performed overnight at 37° C. Clones that were cysteine sensitive at the growth inhibition concentration of cysteine for wild-type strains (20 mM) were visually selected. […] A dsbA gene-deficient strain was obtained as a clone showing particularly strong and distinctive cysteine sensitivity among the above candidates.

[4] = system: OstA protein; experiment: Oxidized and reduced states of OstA protein (AMS modification, Western blotting); type: cell-based, Escherichia coli; settings: wild-type strain with pmyc-OstA, 5 mM L-cysteine; FIG. 3
Source text: Since it was elucidated that the reduced type DsbA was accumulated by cysteine (reduction stress), it was decided to investigate toxicity of cysteine and oxidized and reduced states of a protein in the periplasm. The OstA is a protein in the periplasm indispensable to growth, and requires disulfide bond formed by DsbA. In order to investigate the oxidized and reduced states of the OstA protein, the E. coli BW25113 strain as the wild-type parent strain and the dsbA-deficient JW3832 strain derived from the BW25113 strain were used, and the plasmid pmyc-OstA for expressing OstA fused with an Myc tag (Kadokura, H. et al., 2004, Science, 303, 534-537) was introduced into them. Under the same culture conditions as those of the aforementioned experiment for investigating the oxidized and reduced states of DsbA, addition of L-cysteine (final concentration: 5 mM) and modification of the protein with AMS (4-acetamido-4′-maleimidyl-stilbene-2,2′-disulfonate) were performed, and the OstA protein was detected by Western blotting. As the antibody, anti-Myc (mouse) was used in this experiment.

[5] = system: to/C-deficient strain JW5503/pCA24; experiment: Growth test on L agar medium containing cysteine, tolC-deficient strain; type: cell-based, Escherichia coli; settings: L agar with 10, 15, 20 mM cysteine, 37° C. overnight; FIG. 1
Source text: as §1

N[C@@H](CS)C(=O)O [cysteine, L-cysteine]
cysteine sensitivity (growth) compared with control strain BW25113/pCA24 [1]: marked cysteine sensitivity
DsbA-DsbB complex after exposure to cysteine [2]: markedly accumulated
oxidized/reduced state of DsbA after exposure to cysteine [2]: the reduced type DsbA accumulated
growth inhibition concentration of cysteine for wild-type strains [3]: 20 mM
oxidized/reduced state of OstA after addition of cysteine [4]: the reduced type accumulated
cysteine sensitivity (growth) compared with control strain BW25113/pCA24 [5]: marked cysteine sensitivity
